Test results from PMC10720383, “Acetylcholinesterase Inhibition in Rats and Humans Following Acute Fenitrothion Exposure Predicted by Physiologically Based Kinetic Modeling-Facilitated Quantitative In Vitro to In Vivo Extrapolation” (Environmental Science & Technology, 2023).
Values joined by “and” are separate entries in the source; they are usually repeats but may differ in a detail not shown here. Equal values may be shown once. Read-outs that look alike come from different tables or passages of the source.

Tests used:
PON1 [1] = biological target: T1, PON1 (Homo sapiens, UniProt P27169); assay: in vitro; format: in vitro ADME; conditions: both sexes, pH 7.4, gender-mixed
T1 construct: gender-mixed liver microsomes or plasma from rats and humans; tissue BioIVT (West Sussex, UK); host or cells: human plasma pooled from 25 donors, mixed gender
Procedure: (§1) In vitro incubations were performed to obtain kinetic parameters for the CYP450s-catalyzed conversion of FNT to FNO and MNP using gender-mixed rat and human liver microsomes. For the PON1-dominated detoxification of FNO to MNP, in vitro incubations were conducted with gender-mixed liver microsomes or plasma from rats and humans. Sample extraction with diisopropyl ether was performed before UPLC-PDA analysis. More details on in vitro incubations, sample extraction, UPLC-PDA analysis, and calculation of kinetic parameters are provided in the Supporting Information. […]
(§2) All incubations were performed in triplicate.
(§3) In vitro incubations for metabolic conversions of FNO
(§4) Incubations with liver microsomes and plasma were performed to obtain kinetic parameters for PON1-mediated detoxification of FNO to MNP based on a modified method (Zhao et al. 2021). Incubation conditions that were suitable for linearity with respect to time and microsomal protein or plasma protein concentration were defined (data not shown). The final incubation mixtures with a total volume of 200 µL contained 50 mM Tris-HCl (pH 7.4), 2 mM CaCl2 as PON1 activity simulator, and FNO at final concentrations ranging from 25 to 5000 µM (added from 100 times concentrated stock solutions in acetonitrile). Controls differed from test incubations by the absence of liver microsomes or plasma, which was replaced with Tris-HCl. After 1-min pre-incubation in a 37°C water bath, 2 µL rat or 10 µL human liver microsomes (final concentration 0.2 and 1 mg microsomal protein/mL for rat and human samples, respectively) was added to initiate the reaction. For the plasma incubations, 4 µL of rat plasma or 10 µL human plasma (final concentration 1.2 and 3.3 mg plasma protein/mL for rat and human samples, respectively) was used. Reactions were terminated after incubating 10 min for rat samples or 20 min for human samples by adding 20 µL ice-cold HClO4 (10%, v/v), and samples were kept on ice until further extraction. All incubations were performed in triplicate.
(§5) DIPE extraction of FNT and its metabolites (Zhao et al. 2019; Wang et al. 2022) was performed before UPLC analysis. […]
(§6) Finally, the obtained residue was redissolved in 100 μL methanol, and subsequently analyzed with […]
(§7) The quantification of FNT, FNO and MNP was conducted using a Shimadzu Nexera X2 liquid chromatography system (LC-30AD, Kyoto, Japan), connected with a photodiode array detector (SPD-M30A, Shimadzu, Kyoto, Japan). […]
(§8) temperature at 10°C during analysis. […] Quantification of FNT and FNO was performed by integrating peak areas at 269 nm and for MNP at 315 nm using calibration curves (r2 > 0.99) prepared with commercial standards. The limit of quantification was 0.1 µM for FNT, FNO and MNP when using an injection volume of 20 µL. […]

PON1 [2] = biological target: T2, PON1 (Rattus norvegicus, UniProt P55159); assay: in vitro; format: in vitro ADME; conditions: both sexes, Sprague-Dawley, pH 7.4, gender-mixed
T2 construct: gender-mixed liver microsomes or plasma from rats and humans; tissue Corning (male) and Sigma-Aldrich (female), pooled; host or cells: Sprague-Dawley rat liver microsomes, gender-mixed
Procedure: as §1, §2, §3, §4, §5, §6, §7, §8

[3] = cited from earlier work
erythrocyte AChE [4] = conditions: rat, cited from earlier work
erythrocyte AChE [5] = conditions: human, highest dose tested, cited from earlier work
[6] = humans, oral exposure; cited from earlier work

T2 sequence (P55159 whole entry): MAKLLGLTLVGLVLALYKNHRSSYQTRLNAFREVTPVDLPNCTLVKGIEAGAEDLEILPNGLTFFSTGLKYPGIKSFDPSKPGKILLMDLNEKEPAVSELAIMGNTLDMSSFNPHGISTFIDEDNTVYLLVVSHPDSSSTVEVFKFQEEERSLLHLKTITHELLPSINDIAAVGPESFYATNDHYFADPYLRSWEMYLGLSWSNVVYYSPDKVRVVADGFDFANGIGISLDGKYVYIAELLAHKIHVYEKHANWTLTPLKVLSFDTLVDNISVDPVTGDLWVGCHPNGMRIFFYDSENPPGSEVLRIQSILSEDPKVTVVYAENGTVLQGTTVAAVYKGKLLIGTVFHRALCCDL
T1 sequence (P27169 whole entry): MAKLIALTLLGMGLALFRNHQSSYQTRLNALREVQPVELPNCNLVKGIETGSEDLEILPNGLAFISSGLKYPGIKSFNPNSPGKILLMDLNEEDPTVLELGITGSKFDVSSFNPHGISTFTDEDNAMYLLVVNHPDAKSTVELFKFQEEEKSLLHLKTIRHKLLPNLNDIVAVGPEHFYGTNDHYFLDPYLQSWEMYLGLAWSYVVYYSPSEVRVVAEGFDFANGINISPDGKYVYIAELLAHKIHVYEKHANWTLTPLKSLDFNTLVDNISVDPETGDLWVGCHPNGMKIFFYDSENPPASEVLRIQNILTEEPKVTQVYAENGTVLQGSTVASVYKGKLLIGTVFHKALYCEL

| SMILES | Km (PON1 [1]; human liver microsomes, read-out: Km, FNO to MNP (PON1-catalyzed), liver) | Km (PON1 [1]; human plasma, read-out: Km, FNO to MNP (PON1-catalyzed), plasma) | Km (PON1 [2]; rat liver microsomes, read-out: Km, FNO to MNP (PON1-catalyzed), liver) | Km (PON1 [2]; rat plasma, read-out: Km, FNO to MNP (PON1-catalyzed), plasma) | LogP, reported data ([3]; not clear if experimental or in silico, ref WHO 2004) | LogP, experimental data ([3]; ref JMPR 2003) | reported NOAEL (erythrocyte AChE [4]; EFSA, 90 day rat study, body weight gain and erythrocyte and brain cholinesterase activity) | reported NOAEL (erythrocyte AChE [4]; US EPA, erythrocyte AChE inhibition after 2 weeks of dosing in a 92 week rat study) | reported NOAEL (erythrocyte AChE [5]; APVMA, single dose human study) | reported NOAEL (erythrocyte AChE [5]; JMPR, 4 day study in human volunteers) | fraction of the dose absorbed (Fa) [6] |
| --- | --- | --- | --- | --- | --- | --- | --- | --- | --- | --- | --- |
| COP(=O)(OC)Oc1ccc([N+](=O)[O-])c(C)c1 [FNO, fenitrooxon] | 12.6 mM | 5.49 mM | 4.53 mM | 4.08 mM | – | – | – | – | – | – | – |
| COP(=S)(OC)Oc1ccc([N+](=O)[O-])c(C)c1 [FNT, O,O-dimethyl O-4-nitro-m-tolyl phosphorothioate] | – | – | – | – | 3.16 | 3.319 | 1.3 mg/kg BW and 1.30 mg/kg BW | 0.25 mg/kg BW | 0.33 mg/kg BW | 0.36 mg/kg BW | 0.7 |
